Calls of active or inactive are those of the source.
How the values were obtained:
Cytochrome P450 3A4 = Cytochrome P450 3A4 (Homo sapiens, UniProt P08684); settings: Potency;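 note: confirmatory qHTS run detecting inhibitors and substrates of CYP3A4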
[1] = A Cell Based Secondary Assay To Explore Cytotoxicity of Compounds that Sensitize Mycobacterium Tuberculosis to Beta-Lactam Antibiotics.; type: functional
[2] = target: T1, Apoptotic protease-activating factor 1 (Homo sapiens, UniProt O14727); type: functional
T1 sequence (O14727 whole entry): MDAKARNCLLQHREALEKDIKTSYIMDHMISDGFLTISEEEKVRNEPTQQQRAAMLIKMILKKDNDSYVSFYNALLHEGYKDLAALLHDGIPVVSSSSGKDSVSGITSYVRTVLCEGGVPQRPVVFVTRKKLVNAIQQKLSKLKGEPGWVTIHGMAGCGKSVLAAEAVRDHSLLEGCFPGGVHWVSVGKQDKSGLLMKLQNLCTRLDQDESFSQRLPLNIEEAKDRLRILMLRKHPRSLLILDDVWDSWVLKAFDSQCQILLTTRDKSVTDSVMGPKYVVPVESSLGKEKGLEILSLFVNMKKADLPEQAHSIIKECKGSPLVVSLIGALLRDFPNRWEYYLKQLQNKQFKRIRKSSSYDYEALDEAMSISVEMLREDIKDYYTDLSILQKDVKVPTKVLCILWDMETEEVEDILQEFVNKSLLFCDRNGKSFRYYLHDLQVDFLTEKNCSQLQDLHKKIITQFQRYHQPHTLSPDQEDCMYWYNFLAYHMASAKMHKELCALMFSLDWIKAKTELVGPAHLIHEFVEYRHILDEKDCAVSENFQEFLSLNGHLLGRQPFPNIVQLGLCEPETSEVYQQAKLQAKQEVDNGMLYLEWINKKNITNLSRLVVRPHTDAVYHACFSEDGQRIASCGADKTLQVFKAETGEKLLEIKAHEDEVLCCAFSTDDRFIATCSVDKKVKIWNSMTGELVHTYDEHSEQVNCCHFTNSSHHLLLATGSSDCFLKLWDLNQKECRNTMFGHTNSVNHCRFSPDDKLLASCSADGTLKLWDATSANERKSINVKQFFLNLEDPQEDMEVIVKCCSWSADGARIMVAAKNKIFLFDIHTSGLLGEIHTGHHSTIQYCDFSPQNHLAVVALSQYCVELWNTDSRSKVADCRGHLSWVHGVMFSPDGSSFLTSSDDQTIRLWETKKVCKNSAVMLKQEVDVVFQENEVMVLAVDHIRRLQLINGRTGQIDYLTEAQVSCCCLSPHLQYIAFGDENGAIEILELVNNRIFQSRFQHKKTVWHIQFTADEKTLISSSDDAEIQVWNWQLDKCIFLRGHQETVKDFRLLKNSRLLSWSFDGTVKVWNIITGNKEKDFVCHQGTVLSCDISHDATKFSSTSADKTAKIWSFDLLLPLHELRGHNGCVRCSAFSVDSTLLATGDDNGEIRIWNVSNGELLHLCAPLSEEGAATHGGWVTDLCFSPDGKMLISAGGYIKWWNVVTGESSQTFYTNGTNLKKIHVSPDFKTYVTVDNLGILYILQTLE

[3] = target: T2, Heat shock factor protein 1 (Mus musculus, UniProt P38532); assay: inhibition of MG132-induced HSE-luciferase signal, confirmation, cell-based, NIH3T3, luminescence, dose retest (AID 2382); type: functional;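 note: NIH3T3 fibroblasts with HSF1-driven luciferase reporter stressed by proteasome inhibitor MG132; luminescence from HSF1-driven luciferase expression after 8 hours of MG132 stress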
T2 sequence (P38532 whole entry): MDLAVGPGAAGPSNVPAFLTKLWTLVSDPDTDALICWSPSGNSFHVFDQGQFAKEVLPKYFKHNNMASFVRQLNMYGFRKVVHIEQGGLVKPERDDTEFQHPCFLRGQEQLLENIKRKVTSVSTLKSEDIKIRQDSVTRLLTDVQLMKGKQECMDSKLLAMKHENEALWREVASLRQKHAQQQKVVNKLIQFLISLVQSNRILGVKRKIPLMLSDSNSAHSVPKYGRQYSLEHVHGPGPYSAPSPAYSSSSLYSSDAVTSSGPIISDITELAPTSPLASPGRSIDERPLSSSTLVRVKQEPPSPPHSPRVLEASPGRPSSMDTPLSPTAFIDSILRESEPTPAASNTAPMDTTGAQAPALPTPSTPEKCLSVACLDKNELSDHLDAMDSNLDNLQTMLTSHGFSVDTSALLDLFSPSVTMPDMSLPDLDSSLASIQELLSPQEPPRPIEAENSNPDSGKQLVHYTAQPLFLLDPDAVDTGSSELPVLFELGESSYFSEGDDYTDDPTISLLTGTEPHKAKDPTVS

[4] = Luminescence-based counterscreen assay for KLF5 inhibitors: dose response cell-based high throughput screening assay to identify cytotoxic compounds using the IEC-6 intestinal epithelial cell line. [Related pubchem assays: 1700 (Primary screen.), 1834 (Confirmation screen.), 1858 (Summary AID.), 1905 (Counterscreen.)]; type: functional
[5] = microbe, parasite or virus in culture; type: functional; settings: Mycobacterium tuberculosis
[6] = cytotoxicity in HEK-293T cells, dose response, cytotoxicity control for BCR NF-kB inhibitor project, luminescence, B-cell screen hits (AID 489021); type: functional, cell-based;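 note: HEK-293T cells carrying an NF-kB luciferase reporter; cells exposed to compound for about 14 hours before viability readout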
HEK293 [7] = assay: inhibitors of LMP1-driven NF-kB reporter, dose response, cell-based, HEK293, luciferase, cherry-pick (AID 588343); type: functional; settings: Homo sapiens
Paired box protein Pax-8 = Paired box protein Pax-8 (Homo sapiens, UniProt Q06710); assay: inhibitors of PAX8-driven TPO luciferase reporter, dose response, RMG-I cells, cherry-pick (AID 687027); type: functional, cell-based;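 note: luciferase reporter driven by Pax8 target thyroperoxidase promoter measured by SteadyGlo luminescence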
[8] = inhibitors of CMV-promoter luciferase reporter, dose response, counter-screen for Pax8 inhibitor project, cell-based, HEK293, luminescence, dry powder (AID 743020); type: functional
[9] = A549 cell cytotoxicity, dose response, cytotoxicity control, plate reader, cherry-pick, antagonist series (AID 743412); type: functional, cell-based
[10] = HepG2 cell cytotoxicity, dose response, cytotoxicity control, plate reader, cherry-pick, antagonist series (AID 743416); type: functional, cell-based
[11] = LGR2 antagonists, dose response, cell-based, HEK293, CRE-luciferase reporter, cherry pick, set 2 (AID 743343); type: functional;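 note: transfected cells were stimulated with diluted bursicon conditioned medium after compound addition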
[12] = non-specific cell cytotoxicity, dose response, cytotoxicity control for PAX8 inhibitor project, plate reader, dry powder samples (AID 743021); type: functional, cell-based
[13] = MC4R antagonists, dose response, counter-screen for LGR2 antagonist project, cell-based, plate reader, cherry pick (AID 743444); type: functional;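 note: transfected HEK 293 cells stimulated with alpha-MSH peptide; potency of inhibitors of the alpha-MSH evoked signal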
[14] = HEK293 cell cytotoxicity, dose response, cytotoxicity control, plate reader, cherry-picked samples (AID 743446); type: functional, cell-based
HEK293 [15] = assay: Fluorescence-based counterscreen for potentiators or agonists of NPY-Y2: cell-based high-throughput dose response assay to identify inhibitors of cyclic nucleotide gated ion channel (CNGC) activity. In this assay, the parental HEK293 cell line transfected with a cyclic-nucleotide gated ion channel (CNGC)-based cAMP sensor is used to measure inhibition of isoproterenol-induced CNGC activity by test compound.; type: functional; settings: Homo sapiens
[16] = target: T3, Neuropeptide Y receptor type 2 (Homo sapiens, UniProt P49146); assay: Fluorescence-based cell-based high-throughput dose response assay for agonists of NPY-Y2. [Related pubchem assays: 1703 (Screening assay (CNGC inhibitors).), 1359 (Screening assay (NPY-Y2 potentiators or agonists).), 1304 (Screening assay (NPY-Y1 potentiators or agonists).), 1710 (Screening assay (NPY-Y2 agonists).), 1791 (Summary AID.)]; type: functional
T3 sequence (P49146 whole entry): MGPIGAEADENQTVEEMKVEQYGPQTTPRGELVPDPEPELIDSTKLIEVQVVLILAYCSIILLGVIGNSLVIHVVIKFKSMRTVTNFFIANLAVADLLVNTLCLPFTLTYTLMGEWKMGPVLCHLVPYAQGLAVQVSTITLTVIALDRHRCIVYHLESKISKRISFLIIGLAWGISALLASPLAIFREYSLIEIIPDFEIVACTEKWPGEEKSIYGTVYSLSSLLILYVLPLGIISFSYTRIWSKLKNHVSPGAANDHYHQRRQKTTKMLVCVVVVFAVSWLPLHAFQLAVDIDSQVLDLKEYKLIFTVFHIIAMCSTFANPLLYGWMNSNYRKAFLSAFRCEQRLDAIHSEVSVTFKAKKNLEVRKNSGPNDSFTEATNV

[17] = target: T4, Neuropeptide Y receptor type 1 (Homo sapiens, UniProt P25929); assay: Fluorescence-based counterscreen for agonists of NPY-Y2: cell-based high-throughput dose response assay for agonists of NPY-Y1.; type: functional
T4 sequence (P25929 whole entry): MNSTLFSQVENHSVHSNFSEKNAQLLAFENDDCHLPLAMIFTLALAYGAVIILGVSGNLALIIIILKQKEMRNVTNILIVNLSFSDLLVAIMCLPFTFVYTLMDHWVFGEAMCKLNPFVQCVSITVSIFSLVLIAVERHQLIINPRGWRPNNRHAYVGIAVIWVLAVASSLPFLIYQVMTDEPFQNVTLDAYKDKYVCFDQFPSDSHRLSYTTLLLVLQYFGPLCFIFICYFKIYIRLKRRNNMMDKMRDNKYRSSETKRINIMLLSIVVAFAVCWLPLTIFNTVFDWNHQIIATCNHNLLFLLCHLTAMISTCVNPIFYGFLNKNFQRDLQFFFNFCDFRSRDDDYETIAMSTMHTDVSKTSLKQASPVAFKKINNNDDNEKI

[18] = target: Lysosomal acid glucosylceramidase (Homo sapiens, UniProt P04062); assay: Dose response cell-based high throughput screening assay to identify enhancers of beta-glucosidase activity. [Related pubchem assays: 784 ]; type: functional
cells = type: functional
[19] = enhancers of respiration in Yfh1-depleted yeast, dose response, Friedreich's ataxia, plus single-dose screen (AID 1465); type: functional;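 note: yeast depleted of Yfh1p frataxin homolog grown on glycerol needing respiration; WST-1 tetrazolium dye reduction as measure of cellular dehydrogenase metabolic activity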
[20] = target: Induced myeloid leukemia cell differentiation protein Mcl-1 (Homo sapiens, UniProt Q07820); type: functional
[21] = target: T5, Rac GTPase-activating protein 1 (Homo sapiens, UniProt Q9H0H5); assay: MgcRacGAP GTPase-activating activity inhibitors, confirmation, biochemical, ADP Hunter fluorescence, primary and confirmatory (AID 624330); type: functional
T5 sequence (Q9H0H5 whole entry): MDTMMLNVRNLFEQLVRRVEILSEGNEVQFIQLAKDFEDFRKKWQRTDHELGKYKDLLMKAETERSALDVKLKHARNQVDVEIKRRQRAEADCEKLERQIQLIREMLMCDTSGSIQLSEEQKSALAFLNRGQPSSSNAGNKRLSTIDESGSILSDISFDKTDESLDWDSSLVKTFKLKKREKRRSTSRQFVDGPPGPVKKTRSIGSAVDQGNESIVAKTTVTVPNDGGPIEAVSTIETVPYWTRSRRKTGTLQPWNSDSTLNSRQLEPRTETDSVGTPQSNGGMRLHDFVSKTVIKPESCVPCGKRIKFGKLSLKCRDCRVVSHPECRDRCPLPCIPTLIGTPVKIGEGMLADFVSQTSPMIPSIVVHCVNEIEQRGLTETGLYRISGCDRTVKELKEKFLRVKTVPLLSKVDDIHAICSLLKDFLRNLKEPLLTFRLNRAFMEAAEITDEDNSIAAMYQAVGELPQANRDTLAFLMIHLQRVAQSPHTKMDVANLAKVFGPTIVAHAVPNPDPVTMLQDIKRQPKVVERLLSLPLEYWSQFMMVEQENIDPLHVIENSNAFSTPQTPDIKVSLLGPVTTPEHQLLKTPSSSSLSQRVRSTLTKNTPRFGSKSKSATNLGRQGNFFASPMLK

Chain of Cytochrome P450 3A4 (P08684 whole entry): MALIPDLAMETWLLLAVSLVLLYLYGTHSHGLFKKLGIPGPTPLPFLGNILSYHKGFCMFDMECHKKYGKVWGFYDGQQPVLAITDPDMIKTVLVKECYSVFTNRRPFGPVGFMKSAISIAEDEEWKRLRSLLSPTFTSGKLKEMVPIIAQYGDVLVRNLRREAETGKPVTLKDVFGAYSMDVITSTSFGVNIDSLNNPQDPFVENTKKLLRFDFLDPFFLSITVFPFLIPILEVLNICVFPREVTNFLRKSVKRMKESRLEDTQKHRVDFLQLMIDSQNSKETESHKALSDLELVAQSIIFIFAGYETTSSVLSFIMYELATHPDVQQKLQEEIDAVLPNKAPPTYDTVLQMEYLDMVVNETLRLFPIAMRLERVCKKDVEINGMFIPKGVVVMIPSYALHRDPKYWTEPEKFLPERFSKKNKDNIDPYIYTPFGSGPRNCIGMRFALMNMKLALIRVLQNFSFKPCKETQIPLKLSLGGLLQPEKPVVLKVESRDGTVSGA
Chain of Lysosomal acid glucosylceramidase (P04062 whole entry): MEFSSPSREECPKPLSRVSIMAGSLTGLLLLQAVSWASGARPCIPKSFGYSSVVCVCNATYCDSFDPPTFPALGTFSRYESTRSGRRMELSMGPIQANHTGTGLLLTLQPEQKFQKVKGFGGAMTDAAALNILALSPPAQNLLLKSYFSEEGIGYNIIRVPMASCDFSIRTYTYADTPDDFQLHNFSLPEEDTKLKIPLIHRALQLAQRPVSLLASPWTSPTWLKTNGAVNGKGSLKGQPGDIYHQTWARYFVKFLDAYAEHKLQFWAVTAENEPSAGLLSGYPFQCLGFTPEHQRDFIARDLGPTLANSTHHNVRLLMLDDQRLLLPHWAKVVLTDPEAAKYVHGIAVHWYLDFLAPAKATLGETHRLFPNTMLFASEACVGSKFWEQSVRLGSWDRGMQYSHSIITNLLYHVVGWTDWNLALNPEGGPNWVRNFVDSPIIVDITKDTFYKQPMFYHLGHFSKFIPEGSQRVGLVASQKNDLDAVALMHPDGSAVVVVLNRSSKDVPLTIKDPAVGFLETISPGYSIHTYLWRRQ
Chain of Paired box protein Pax-8 (Q06710 whole entry): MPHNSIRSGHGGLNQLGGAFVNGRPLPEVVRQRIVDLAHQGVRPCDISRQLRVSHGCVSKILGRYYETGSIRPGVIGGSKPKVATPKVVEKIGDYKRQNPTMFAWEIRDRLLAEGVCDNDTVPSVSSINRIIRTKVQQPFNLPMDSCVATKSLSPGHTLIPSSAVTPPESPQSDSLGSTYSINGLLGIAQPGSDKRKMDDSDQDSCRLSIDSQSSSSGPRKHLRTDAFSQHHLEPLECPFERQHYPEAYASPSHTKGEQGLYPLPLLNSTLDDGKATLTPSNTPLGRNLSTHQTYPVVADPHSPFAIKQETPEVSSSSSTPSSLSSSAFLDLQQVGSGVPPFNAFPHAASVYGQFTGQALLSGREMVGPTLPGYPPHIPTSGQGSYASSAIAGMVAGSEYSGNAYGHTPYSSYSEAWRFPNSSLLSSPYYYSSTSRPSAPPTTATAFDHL
Chain of Induced myeloid leukemia cell differentiation protein Mcl-1 (Q07820 whole entry): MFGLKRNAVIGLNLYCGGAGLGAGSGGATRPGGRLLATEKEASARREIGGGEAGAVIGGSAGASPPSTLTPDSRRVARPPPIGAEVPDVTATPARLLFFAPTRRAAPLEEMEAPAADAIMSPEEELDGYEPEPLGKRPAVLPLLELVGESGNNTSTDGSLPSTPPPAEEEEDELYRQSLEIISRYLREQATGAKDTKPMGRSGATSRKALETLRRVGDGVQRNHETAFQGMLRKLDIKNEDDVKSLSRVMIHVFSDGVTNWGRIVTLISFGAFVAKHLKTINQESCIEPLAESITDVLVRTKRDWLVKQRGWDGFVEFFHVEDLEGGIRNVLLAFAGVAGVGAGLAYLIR

Compound: CCC(C(=O)O)C1CCC(C)C(C(C)C(O)C(C)C(=O)C(CC)C2OC3(C=CC(O)[C@@]4(CC[C@](C)(C5CC[C@@](O)(CC)C(C)O5)O4)O3)C(C)CC2C)O1 (stereo not given in full)
- AC50 (Cytochrome P450 3A4): 39.8 µM (inconclusive)

Compound: Cc1nn(-c2ccccc2)c(O)c1/C=N/NC(=O)c1cccc([N+](=O)[O-])c1
- CC50 [1]: 7.57 µM (active)
- IC50 [2]: 13.2 µM (active)

Compound: CC(C)CC(=O)N1CCN(c2ccc([N+](=O)[O-])c(NCc3ccccc3)c2)CC1
- CC50 [1]: > 40 µM (active)

Compound: COc1ccc(OCc2cccc(C(=O)Nn3cc([N+](=O)[O-])cn3)c2)cc1
- EC50 [3]: 4.92 µM (active)
- IC50 [4]: > 39.8 µM (not active)
- CC50 [5]: > 40 µM (active)
- IC50 [6]: > 80 µM (inactive)
- AC50 (HEK293 [7]): 0.709 µM (active)
- AC50 (Paired box protein Pax-8): 1.13 µM (active)
- AC50 [8]: 21 µM (active)
- AC50 [9]: > 52 µM (inactive)
- AC50 [10]: 34.1 µM (active)
- AC50 [11]: 0.407 µM (active)
- AC50 [12]: 10.1 µM (active)
- AC50 [13]: 0.462 µM (active)
- AC50 [14]: > 52 µM (inactive)

Compound: Cc1ccccc1OCC(O)CN1CCC(C)CC1 (stereo not given)
- EC50 (HEK293 [15]): 4.67 µM (active)
- EC50 [16]: 33.3 µM (not active)
- EC50 [17]: 21.8 µM (not active)

Compound: CCOC(=O)c1c(C)n(C)c2ccc(OC(C)C(=O)OC)cc12 (stereo not given)
- EC50 [18]: > 10 µM (not active)
- IC50 (cells): 20.9 µM (active)

Compound: COC(=O)[C@@H]1C[C@@]2(O)[C@H](O)[C@H](O)[C@H](O)C[C@H]2N1Cc1cc(OC)cc(OC)c1
- AC50 (Cytochrome P450 3A4): 15.8 µM (inconclusive)

Compound: CC1=NN(C(N)=S)C(=O)C1N=Nc1ccc(O)cc1 (stereo not given)
- EC50 [19]: > 100 µM (active)
- IC50 [20]: 9.66 µM (active)
- IC50 [21]: 16.6 µM (active)

Compound: CN(Cc1ccccc1)C(=O)CCNC(=O)Cn1cnc2ccccc2c1=O
- EC50 (HEK293 [15]): > 35.4 µM (not active)
- EC50 [16]: > 35.4 µM (not active)
- EC50 [17]: > 35.4 µM (not active)

Compound: COCc1nnc(NC(=O)c2ccc(S(=O)(=O)N(C)C3CCCCC3)cc2)o1
- EC50 [18]: > 10 µM (not active)
